Laboratory results from patent EP0155486A1, “1,3,5-Trisubstituted 1,2,4-triazole derivatives, process for their preparation and medicinal preparations containing them” (priority 1984, dated 1985).
Where two headings read alike, the source gives them in different places.

Legend:
[1] = test system: männlichen Ratten der Art Long Evans; test: animal or person; format: in vivo; details: for Prozentuale Hemmung bei einer peroralen Dosis von 3,12 mg/kg: peroral 3,12 mg/kg; for change in vivo at 6.25 mg/kg / change in vivo at 12.5 mg/kg: 504 h; for change in vivo at 6.25 mg/kg: read-out: Prozentuale Hemmung bei einer peroralen Dosis von 6,25 mg/kg; for Prozentuale Hemmung bei einer peroralen Dosis von 1,56 mg/kg: peroral 1,56 mg/kg; for ED50: read-out: Peroraler ED50-Wert in mg/kg an Ratten; for Therapeu-tischer Index LD50-Wert / ED50-Wert: ratio of peroral LD50 to peroral ED50, rats
Description: Die Untersuchung der therapeutischen Wirkung der erfindungsgemäßen 1,2,4-Triazolderivate wurde mittels des modifizierten Newbould-Prüfversuches (Brit. J. Pharmacol., 21 [1963], Seite 127) durchgeführt. Dazu wurde in die rechen Hinterfüße von männlichen Ratten der Art Long Evans mit Gewichten von 180 bis 250 g intraplantar […] abgetötetes Mycobacterium tuberculosis in einem Volumen von 0,1 ml injiziert. Nachfolgend wurden die Ratten pro betreffenden Tag mit einer Dosis der zu untersuchenden Verbindung insgesamt 16-mal während 3 Wochen behandelt. Die Änderung des Volumens der Fußschwellung wurde 21 Tage lang täglich mit einem Quecksilber-Plethysmometer vom Lence-Typ bestimmt. Vom 10-ten Tag an wurde das Volumen des linken Hinterfußes bestimmt. Die prozentuale Hemmung wurde im Verhältnis zu diesem Volumen aus der eintretenden Änderung in der Schwellung des rechten Hinterfußes berechnet.

Ratten = test: ulcerogenic side effect; format: in vivo
Description: Auch die geschwürbildende beziehungsweise ulcerogene Wirkung, eine der kritischsten Nebenwirkungen entzündungshemmender Mittel, betreffend erwiesen sich die erfindungsgemäßen 1,2,4-Triazolderivate als im Vergleich zu Handelspräparaten günstiger. So führten Einzeldosen von 15 mg/kg 1-(p-Chlorbenzoyl)-5-(methoxy)-2-(methyl)-indol-3-ylessig- säure {Indometacin} bei 100% der Ratten Geschwüre (Ulcus) herbei, während Einzeldosen von 1 000 mg/kg 1,5-Bis-[4'--(chlor)-phenyl]-3-[methylthio]-1,2,4-triazol (Verbindung des Beispieles 27) nur bei 10% der Tiere Geschwüre verursachten.

in vivo = details: rat, po, peroral, rats, read-out: Peroraler LD50-Wert in mg/kg an Ratten
[2] = 16 doses during 3 weeks, paw swelling, rats
[3] = po, peroral 12,5 mg/kg, 16 doses during 3 weeks, paw swelling, rats, read-out: Prozentuale Hemmung bei einer peroralen Dosis von 12,5 mg/kg
[4] = po, read-out: Prozentuale Hemmung bei einer peroralen Dosis von 12,5 mg/kg

| SMILES | Prozentuale Hemmung bei einer peroralen Dosis von 3,12 mg/kg [1, 2] | change in vivo at 6.25 mg/kg ([1]; po) | change in vivo at 12.5 mg/kg [1, 3] | other results |
| --- | --- | --- | --- | --- |
| Clc1ccc(-c2nc(SCc3ccccn3)nn2-c2ccc(Cl)cc2)cc1 [Beispiel 4, 1,5-Bis-[4'-(chlor)-phenyl]-3-[pyrid-2"-ylmethyl-thio]-1,2,4-triazol] | -38% | -40% |  |  |
| CSc1nc(-c2ccccc2SC)n(-c2ccc(Cl)cc2)n1 [Beispiel 14, 1-[4'-(Chlor)-phenyl]-5-[2"-(methylthio)-phenyl]-3--[methylthio]-1,2,4-triazol] | -5% |  | -51% |  |
| CSc1nc(-c2ccc(Cl)cc2)n(-c2ccc(Cl)cc2)n1 [Beispiel 27, 1,5-Bis-[4'-(chlor)-phenyl]-3--[methylthio]-1,2,4-triazol] | -39% | -55% |  | Prozentuale Hemmung bei einer peroralen Dosis von 1,56 mg/kg [1, 2]: -17%; change in vivo at 12.5 mg/kg [1, 4]: -67%; ED50 ([1]; po): 7.4 mg/kg; Tiere mit Geschwüren (Ratten; single dose 1 000 mg/kg, share of animals with ulcers): 10% |
| CSc1nc(-c2cccs2)n(-c2ccc(Cl)cc2)n1 [Beispiel 30, 1-[4'-(Chlor)-phenyl]-5-[thien-2"-yl]-3-[methylthio]--1,2,4-triazol] |  |  | -44% |  |
| CSc1nc(-c2ccc(F)cc2)n(-c2ccc(F)cc2)n1 [Beispiel 41, 1-[4'-(Fluor)-phenyl]-5-[4"-(fluor)-phenyl]-3--[methylthio]-1,2,4-triazol] | -42% | -57% |  |  |
| CSc1nc(-c2ccc(Cl)cc2)n(-c2cccc(C(F)(F)F)c2)n1 [Beispiel 42, 1-[3'-(Trifluormethyl)-phenyl]-5-[4"-(Chlor)-phenyl]--3-[methylthio]-1,2,4-triazol] |  | -48% |  |  |
| CSc1nc(-c2ccc(F)cc2)n(-c2ccc(Cl)cc2)n1 [Beispiel 44, 1-[4'-(Chlor)-phenyl]-5-[4"-(fluor)-phenyl]-3--[methylthio]-1,2,4-triazol] | -64% | -53% |  | LD50 (in vivo): 170 mg/kg; Prozentuale Hemmung bei einer peroralen Dosis von 1,56 mg/kg [1, 2]: -36%; ED50 ([1]; po): 2.1 mg/kg; Therapeu-tischer Index LD50-Wert / ED50-Wert [1]: 81,0 |
| CSc1nc(-c2ccc(C(F)(F)F)cc2)n(-c2ccc(F)cc2)n1 [Beispiel 45, 1-[4'-(Fluor)-phenyl]-5-[4"-(trifluormethyl)-phenyl]--3-[methylthio]-1,2,4-triazol] |  | -25% | -48% |  |
| CSc1nc(-c2ccc(F)cc2)n(-c2cccc(C(F)(F)F)c2)n1 [Beispiel 47, 1-[3'-(Trifluormethyl)-phenyl]-5-[4"-(fluor)-phenyl]--3-[methylthio]-1,2,4-triazol] |  | -22% | -53% |  |
| CSc1nc(-c2ccc(F)cc2)n(-c2cccc(Cl)c2)n1 [Beispiel 53, 1-[3'-(Chlor)-phenyl]-5-[4"-(fluor)-phenyl]-3--[methylthio]-1,2,4-triazol] |  |  | -51% |  |
| CSc1nc(-c2ccc(Cl)cc2)n(-c2ccc(Br)cc2)n1 [Beispiel 54, 1-[4'-(Brom)-phenyl]-5-[4"-(chlor)-phenyl]-3--[methylthio]-1,2,4-triazol] |  | -28% | -56% |  |
| CSc1nc(-c2ccc(Cl)cc2)n(-c2ccc(F)cc2)n1 [Beispiel 55, 1-[4'-(Fluor)-phenyl]-5-[4"-(chlor)-phenyl]-3--[methylthio]-1,2,4-triazol] | -26% | -68% |  | LD50 (in vivo): 380 mg/kg; Prozentuale Hemmung bei einer peroralen Dosis von 1,56 mg/kg [1, 2]: -12%; ED50 ([1]; po): 6.8 mg/kg; Therapeu-tischer Index LD50-Wert / ED50-Wert [1]: 55,9 |
| COc1ccc2c(c1)c(CC(=O)O)c(C)n2C(=O)c1ccc(Cl)cc1 [Indometacin, 1-(p-Chlorbenzoyl)-5-(methoxy)-2-(methyl)-indol-3-ylessig-säure, reference compound] |  |  |  | Ratten mit Geschwüren (Ulcus) (Ratten; single dose 15 mg/kg, share of rats with ulcers): 100% |
| CCCCC1C(=O)N(c2ccccc2)N(c2ccccc2)C1=O [Vergleichs-substanz A, 4-(Butyl)-1,2-di-(phenyl)-pyrazolidin-3,5-dion, reference compound] |  |  | -7% |  |
| COc1ccc2cc([C@H](C)C(=O)O)ccc2c1 [Vergleichs-substanz B, (+)-2-[6'--(Methoxy)-naphth-2'-yl]-propionsäure, reference compound] |  |  |  | ED50 ([1]; po): 12.5 mg/kg; change in vivo at 10 mg/kg [1, 4]: -34% |
